Results taken from patent US8633201B2, “Thienopyrimidines having Mnk1/Mnk2 inhibiting activity for pharmaceutical compositions” (Boehringer Ingelheim International GmbH, priority 2006, dated 2014).

Assays:
[1] = system: cell culture cells, transfected with Mnk2 (Mnk2a or Mnk2b) or Mnk1; conditions: addition to cell culture cells transfected with Mnk2 (Mnk2a or Mnk2b) or Mnk1; cited from earlier work
db/db mice = test: 14-day oral treatment study in db/db mice (body weight, blood glucose, plasma and pancreas parameters); format: in vivo; conditions: oral gavage
Protocol: BKS.Cg-m+/+Lepr^db/J (Charles River Laboratories) male mice (commonly referred to as db/db mice) are deficient in the […] due a spontaneous point mutation. They are maintained on the C57BL6/J strain.
Mice are housed four by cage at a temperature of 22-24° C. and a day/night cycle of […] (05:00-19:00-05:00), and obtain standard chow and tap water ad libitum. Mice are allowed to adapt to housing and environment for 14 days prior to substance administration.
Compound suspensions in 0.3% Methylcellulose in saline are prepared freshly just prior to administration.
Substances will be administered by oral gavage in the morning at 07:00, one hour before determining fed blood glucose levels and body weight. In the evening, substance is administered between 17:00 and 18:00. Animals are visually monitored for 1 hour after the administrations.
Dosing is chosen based on the results of pharmacokinetic (PK) and dose tolerability studies. […]
Animals are being supplied one week in advance to allow for adaptation to housing and environment. During that time, body weight and fed blood glucose are measured daily. […]
Bodyweight and bloodglucose were measured three times a week. At the end of the study pancreatic insulin content and plasma parameters were determined.

## Nc1ncnc2n[nH]c(Nc3ccc(F)cc3)c12 [CGP57380]
[1]
  phosphorylated eIF4E: strong reduction

## NC(=O)c1ccc(Nc2ncnc3ccsc23)c(OC2CCOC2)c1 (stereo not drawn) [Compound 15, 3-(Tetrahydrofuran-3-yloxy)-4-(thieno[3,2-d]pyrimidin-4-ylamino)-benzamide]
db/db mice; during the 14 day study, FIG. 2
  random fed blood glucose: progressive improvement

## CN(CCOc1ccc(CC2SC(=O)NC2=O)cc1)c1ccccn1 (stereo not drawn) [Rosiglitazone]
db/db mice; d1 to d14, FIG. 1
  body weight compared to vehicle: significant increased in body weight
